Assay results reported in patent US11274332B2, “Methods of administering 3,4-diaminopyridine” (SERB SA, priority 2011, dated 2022).

Target: T1, cloned human Kv1.5 potassium channel (Homo sapiens, UniProt P22460)
T1 construct: expressed in transfected cells
Assay: PatchXpress inhibition of cloned human Kv1.5 in CHO cells (Example 6)
Assay type: cell-based
Conditions: hKv1.5, up to 3000 μM
Excerpt: The objective of this study was to examine the in vitro effects and determine the […] of 3,4-DAP phosphate and the metabolite N-(4-aminopyridin-3-yl) acetamide HCl on the following ion channels: cloned human Kv1.1 potassium channel (encoded by the human KCNA1 gene, expressed in HEK293 cells), cloned human Kv1.2 potassium channel (encoded by the human KCNA2 gene, expressed in HEK293 cells), cloned human Kv1.3 potassium channel (encoded by the human KCNA3 gene, expressed in CHO cells), cloned human Kv1.4 potassium channel (encoded by the human KCNA4 gene, expressed in HEK293 cells), cloned human Kv1.5 potassium channel (encoded by the human KCNA5 gene and expressed in CHO cells), responsible for IKur, ultra-rapid delayed rectifier potassium current.
Chemicals used in solution preparation were purchased from Sigma-Aldrich (St. Louis, Mo.), unless otherwise noted, and were of ACS reagent grade purity or higher. Stock solutions of each test article (100 mM, 30 mM and 1.00 mM 3,4-DAP phosphate and 100 mM N-(4-aminopyridin-3-yl)acetamide) were prepared in sterile water and stored refrigerated. […]
In preparation for a recording session, intracellular solution was loaded into the intracellular compartments of the Sealchip16. […] After establishment of a whole-cell configuration, membrane currents were recorded using dual-channel patch clamp amplifiers in the PatchXpress®. […]

T1 sequence (P22460 whole entry): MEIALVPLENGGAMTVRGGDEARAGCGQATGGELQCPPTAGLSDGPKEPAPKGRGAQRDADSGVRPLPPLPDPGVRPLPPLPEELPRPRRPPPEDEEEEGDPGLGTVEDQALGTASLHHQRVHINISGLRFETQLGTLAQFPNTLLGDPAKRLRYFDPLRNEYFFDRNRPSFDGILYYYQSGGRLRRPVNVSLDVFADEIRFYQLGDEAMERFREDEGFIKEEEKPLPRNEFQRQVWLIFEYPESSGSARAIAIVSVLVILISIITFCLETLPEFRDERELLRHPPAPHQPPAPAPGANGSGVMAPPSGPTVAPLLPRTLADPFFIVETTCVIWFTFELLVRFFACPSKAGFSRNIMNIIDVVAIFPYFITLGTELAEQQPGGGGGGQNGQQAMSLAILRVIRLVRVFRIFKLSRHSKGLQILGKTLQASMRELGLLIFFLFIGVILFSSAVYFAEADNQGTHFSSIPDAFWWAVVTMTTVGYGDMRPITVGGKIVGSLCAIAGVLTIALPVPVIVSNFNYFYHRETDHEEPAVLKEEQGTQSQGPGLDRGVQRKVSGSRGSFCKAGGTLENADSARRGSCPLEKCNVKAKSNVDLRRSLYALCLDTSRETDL

CC(=O)Nc1cnccc1N [3-N-acetyl amifampridine, N-(4-aminopyridin-3-yl)acetamide]
activity on K+ channel: inactive | activity on K+ channel (listed as N-acetyl metabolite): not active
